Data from patent US11648289B2, “Antibacterial method” (priority 2016, dated 2023).
Read-outs that look alike come from different tables or passages of the source. No end group written: not given here.

Columns and labels:
[1] = tested on: S. pneumoniae ms4; settings: ms4, rseP Y24>A, induced with ComS (2 μM)
Description: (§1) Bacterial strains, growth conditions, bacteriocins and antimicrobial assays. All the strains (see below) used in minimal inhibitory concentration (MIC) assays (Varahan et al., 2014, M. Bio. 5:e01726-01714) were grown in BHI medium (Oxoid) at 30° C. without shaking. A collection of E. faecium strains isolated from blood in patients from different European hospitals was received from Department of Medical Microbiology, University Medical Center Utrecht, the Netherlands. […] Synthesized peptides were solubilized to concentrations of 10.0-0.1 mg/ml in 0.1% (vol/vol) trifluoroacetic acid and stored at −20° C. until use. […] Bacteriocin activity was determined by microtiter plate assay as previously described (Holo et al., 1991, J. Bacteriol., 173:3879-3887). The MIC was defined as the minimal bacteriocin concentration that inhibited the growth of the indicator strain by at least 50% (50% of the turbidity of the control culture without bacteriocin) in 200 μl culture. CD Spectroscopy Circular dichroism (CD) spectra were recorded using a Jasco J-810 spectropolarimeter (Jasco International Co) calibrated with D-camphor-10-sulfonate (Icatayama Chemical). All measurements were made using a quartz cuvette (Sterna) with 0.1 cm path length. Samples were scanned five times with a scanning rate of 50 nm/min with a bandwidth of 0.5 nm and response time of 1 s over the wavelength range 190-250 nm. Spectra were recorded at different (30 and 50%) trifluoroethanol (TFE) (Aldridge) concentrations at 25° C. The approximate α-helical content of the protein was estimated from its molar ellipticity at 222 nm (Scholtz et al., 1991, Biopolymers 31:1463-1470). NMR Spectroscopy The experiments were run on a sample containing 1.0 mM EntK1, 50% D3-TFE (99.5% D) (Aldrich), Milli-Q water and 0.2 mM of 4,4-dimethyl-4-silapentane-1-sulfonic acid (DSS) (Larodan). 2D NOESY (Jeener et al., 1979, J. Magn. Reson., 71:4546-4553), 2D TOCSY (Braunschweiler and Ernst, 1983, J. Magn. Reson., 53:521-528), 2D DQCOSY, ^15N-HSQC (Davis et al., 1992, J. Magn. Reson., 98:207-216) and ^13C-HSQC (Hurd, 1991, J. Magn. Reson., 91:648-653) were recorded. The data was acquired on a 600 MHz Bruker Avance II spectrometer with four channels and a 5 mm TCI cryoprobe (Bruker Biospin). NOESY spectra with mixing times between 120 ms and 300 ms were obtained for both samples. TOCSY mixing times of 15-80 ms were used. The experiments were run at 298.15 K. Spectra were processed using the Topspin program (Bruker Biospin). 4,4-dimethyl-4-silapentane-1-sulfonic acid (DSS) was used as a chemical shift standard, and ^15N and ^13C data were referenced using frequency ratios as described in (Wishart et al., 1995, J. Biomol. NMR., 6:135-140). For visualization, assignment and integration of the spectra the computer program CARA was used (Keller, 2004, The Computer Aided Resonance Assignment Tutorial. CANTINA Verlag, Goldau, Switzerland). The spectra were assigned using standard methods. Dihedral angle restraints were obtained from the chemical shift values using the program TALOS-N(Shen and Bax, 2013, J. Biomol. NMR, 56:227-241). Nuclear Overhauser effect (NOE) distance restraints were calculated from the peak volumes in the NOESY spectra with NOESY mixing time of 200 ms. All structure calculations were made using the structure calculation program CYANA 2.1 (Guntert et al., 1997, J. Mol. Biol., 273:283-298; Herrmann et al., 2002, J. Mol. Biol., 319:209-227). The annealing macro in CYANA calculated 100 structures. The 20 structures with the lowest energy were kept and analyzed further. The root-mean-square deviation (RMSD) was calculated and the structures were visualized using MolMol (Koradi et al., 1996, J. Mol. Graph., 14:51-55, 29-32). Generation of bacteriocin resistant mutants of E. faecalis and E. faecium.

[2] = tested on: E. faecium 130409015079*; settings: E. faecium 130409015079, isolated from blood, Vancomycin-resistant
Description: as §1

[3] = tested on: E. faecium LMGT 2787
Description: as §1

[4] = tested on: E. faecium P040 INV-25; settings: E. faecium P040 INV-25, isolated from blood
Description: as §1

[5] = tested on: E. faecium A11 EFH2/00; settings: E. faecium A11 EFH2/00, isolated from blood
Description: as §1

[6] = tested on: S. pneumoniae ds 221; settings: ds 221, no rseP
Description: as §1

[7] = tested on: E. faecium PO1402593*; settings: E. faecium PO1402593, isolated from blood, Vancomycin-resistant
Description: as §1

[8] = tested on: E. faecium LMGT2787 resistant mutants; settings: only HR type found
Description: as §1

[9] = tested on: E. faecalis LMGT 3370
Description: as §1

[10] = tested on: E. faecium 14-597963*; settings: E. faecium 14-597963, isolated from blood, Vancomycin-resistant
Description: as §1

[11] = tested on: E. faecium 602589; settings: E. faecium 602589, isolated from blood
Description: as §1

[12] = tested on: L. monocytogenes LMGT 2605
Description: as §1

[13] = tested on: E. faecium 928379 A*; settings: isolated from blood, Vancomycin-resistant
Description: as §1

[14] = tested on: E. faecium UW6920; settings: E. faecium UW6920, isolated from blood
Description: as §1

[15] = tested on: Lactobacillus sakei LMGT 2334
Description: as §1

[16] = tested on: E. faecium P032 inv-4; settings: E. faecium P032 inv-4, isolated from blood
Description: as §1

[17] = tested on: L. lactis LMGT 2084
Description: as §1

[18] = tested on: E. faecium LMGT 3192
Description: as §1

[19] = tested on: E. faecium AH137; settings: E. faecium AH137, isolated from blood
Description: as §1

| Sequence | MIC [1] | MIC 50 [2] | MIC 50 [3] | MIC 50 [4] | MIC 50 [5] | MIC [6] | MIC 50 [7] | resistance of HR type mutants compared to the WT [8] | MIC 50 [9] | MIC 50 [10] | MIC 50 [11] | MIC 50 [12] | MIC 50 [13] | MIC 50 [14] | MIC 50 ([15]; Lactobacillus sakei LMGT 2334) | MIC 50 [16] | MIC 50 [17] | MIC 50 [18] | MIC 50 [19] | MIC 50 ([15]; LMGT 2334) |
| --- | --- | --- | --- | --- | --- | --- | --- | --- | --- | --- | --- | --- | --- | --- | --- | --- | --- | --- | --- | --- |
| MKFKFNPTGTIVKKLTQYEIAWFKNKHGYYPWEIPRC [EntK1] | 0.7 µM | 0.02 µM | 0.02 µM | 0.02 µM | 0.045 µM | >5.5 µM | 0.02 µM | 500 times | 5.5 µM | 0.045 µM | 0.045 µM | >5.5 µM | 0.02 µM | 0.045 µM | >5.5 µM | 0.02 µM | >5.5 µM | 0.02 µM | 0.01 µM | – |
| MKTILRFVAGYDIASHKKKTGGYPWERGKA [LsbB, reference compound] | >7 µM | – | >7 µM | – | – | >7 µM | – | – | >7 µM | – | – | >7 µM | – | – | – | – | >7 µM | >7 µM | – | >7 µM |
| MLAKIKAMIKKFPNPYTLAAKLTTYEINWYKQQYGRYPWERPVA [EntEJ97] | 0.018 µM | 0.037 µM | 0.145 µM | 0.075 µM | 0.075 µM | >4.5 µM | 0.075 µM | 500 times | 0.145 µM | 0.145 µM | 0.145 µM | 1.175 µM | 0.075 µM | 0.145 µM | >4.7 µM | 0.037 µM | 0.295 µM | 0.295 µM | 0.075 µM | – |
